According to patent US11234960B2, “Compositions and methods for improving mitochondrial function and treating neurodegenerative diseases and cognitive disorders” (Amazentis SA, priority 2010, dated 2022):

Columns and labels:
Format in all cases: in vivo
[1] = system: aged C. elegans (wild-type Bristol N2); assay: Oxygen consumption (Seahorse XF24) in aged C. elegans; conditions: 10-day-old worms, 30 μM urolithin A in 0.1% DMSO, 30 minute period (FIGS. 25A, 25B)
Procedure: C. elegans strains were cultured at 20° C. on nematode growth media (NGM) agar plates seeded with E. coli strain OP50. Strain used was wild-type Bristol N2 provided by the Caenorhabditis Genetics Center (University of Minnesota). Urolithin A was dissolved in DMSO. Animals were exposed to compounds from eggs on plates seeded with live OP50 bacteria. Control plates were prepared with the corresponding concentration of DMSO (0.1%).
Measurement of oxygen consumption is a direct indicator of mitochondrial activity. The effect of urolithin A on mitochondrial activity in aged C. elegans (10 days old) was assessed by treating C. elegans with urolithin A for 10 days of adulthood, at which time oxygen consumption was measured using the Seahorse XF24 equipment (Seahorse Bioscience Inc., North Billerica, Mass.). 250 ten-day-old C. elegans were used per condition. […] Worms were transferred into 24-well standard Seahorse plates (#100777-004) (50 worms per well) and oxygen consumption was measured. The basal oxygen consumption of the worms was first measured over 30 minutes at 5 minute intervals (0 min, 5 min, 15 min, 20 min, 25 min and 30 min) with 5 replicates per interval. Respiration rates were normalized to the exact number of worms per well determined after the completion of the experiment using a stereomicroscope. […]

[2] = system: maternally separated mice; assay: Dark/light box test in early-life stress (maternal separation) mice; conditions: 90 mg/kg/day in food (FIG. 39)
Procedure: (§1) At postnatal day 1, pups were culled to have 6 pups per mother. From postnatal day 1 to 14, unpredictable maternal separation (MS) of a period of 3 hours daily was carried out. Maternal separation was performed at random times (from 8 am to 2 pm) to avoid the habituation of the mother to the procedure. The protocol consisted of removing pups from their mother to another cage at room temperature for a 3 hour period, after which the pups were returned to their original nest. These groups are denoted as early-life stress in the figures. A control group of dam/pups was left undisturbed and is denoted in the figures as normal.
(§2) One week after maternal separation mice were separated into two groups. One control group received the standard mouse chow diet (Untreated), while the other group received the ellagitannin punicalagin admixed into the food and designed to deliver a dose of 90 mg/kg/day to the mice. Treatment with the diet began 1 week after the termination of the maternal separation treatment.
The effects of early-life stress on depression, anxiety and cognition were examined utilizing the following behavioral assays which were carried out 166 days after the completion of the maternal separation protocol. Normally raised mice were compared versus maternally separated mice (early-life stress) and maternally separated mice treated with punicalagin. […]

normal mice = assay: Rotarod assay in normal mice; conditions: 90 mg/kg/day in diet for 3 months, four trials (FIG. 48)
Procedure: Beginning at 3 months of age, mice were fed either a standard control diet such as AIN-93G or a diet containing punicalagin to deliver a dose of 90 mg/kg/day for a period of 3 months.
To examine the effect of pomegranate derived compounds on muscle performance and motor skills, mice were tested on the rotarod behavioral assay. The rotarod apparatus consists of a rod with a diameter of 2 cm with 5 compartments, 5 cm wide. A mouse is placed on a rotating rod which is started at an initial speed of 5 rpm. The rod speed is gradually accelerated at a rate of 8 rpm/min. The latency to fall was measured with a cutoff time of 300 seconds. Mice were tested for four trials. The latency to fall is a measure of the muscle performance and motor skills of the mice, with a better performance reflected by a longer latency to fall. Both control untreated and punicalagin-treated mice were tested. […] Punicaligin-treated mice were able to remain on the rotarod for a longer time and at higher speeds compared to untreated mice during sequential trial periods (FIG. 48).

[3] = system: maternally separated mice; assay: Elevated O-maze in early-life stress mice; conditions: 90 mg/kg/day in food (FIG. 40)
Procedure: as §1
as §2, with “treatment. […]” for “treatment.”
To examine the effect of early life stress, mice were placed at the entrance of one of the areas of the maze with the 5 cm walls, with the nose facing the closed arm, and were allowed to explore the EOM for 5 min. […] The time spent in each arm (closed versus open) was calculated, with an entry into the arm only being considered to have occurred when the animal placed all four paws in the arm.

SMILES | uncoupled (FCCP) respiration, oxygen consumption AUC [1] | time spent in lit area (risk-taking behavior) [2] | muscle performance and motor skills, latency to fall from rotarod (normal mice) | time spent in open sections of O-maze (risk taking) [3]
O=c1oc2cc(O)ccc2c2ccc(O)cc12 [urolithin A, 3,8-Dihydroxydibenzo-α-pyrone] | significantly increased uncoupled respiration |  |  | 
O=C1O[C@H]2[C@@H]3OC(=O)c4cc(O)c(O)c(O)c4-c4c(O)c(O)c5oc(=O)c6c(c(O)c(O)c7oc(=O)c4c5c76)-c4c(cc(O)c(O)c4O)C(=O)OC[C@H]3OC(O)[C@@H]2OC(=O)c2cc(O)c(O)c(O)c2-c2c1cc(O)c(O)c2O (mixture of isomers) [punicalagin, 2,3 hexahydroxydiphenoyl-4,6-gallagylglucose] |  | reversed and normalized the excessive risk-taking behavior | significantly improve muscle performance and motor skills | reversed and normalized their abnormal excessive risk taking behaviour
